Measurements published in US9485983B2, “Use of connexin channel inhibitors to protect grafts” (Universiteit Gent, priority 2012, dated 2016).
“Also recorded” adds a separate entry of the source.

Key:
Type in all cases: cell-based
[1] = system: C6 glioma cells stably transfected with Cx43; assay: TUNEL control experiment with staurosporine; conditions: 2 μM, 6 hours
[2] = system: ECs and SMCs of femoral arteries; assay: TUNEL apoptosis assay on cryopreserved/thawed human femoral arteries; conditions: for effect on number of TUNEL-positive cells (in words) / reduction of TUNEL-positive cell death counts (fraction): femoral arteries; for Protection relative to total number of cells (%) / Protection relative to total number of dead cells (%): Arteries, Gap27 200 μM; for reduction of TUNEL-positive cell death counts (fraction): 200 μM during cryopreservation, thawing and DMSO washout
From the text: (§1) Tissue samples of human femoral artery and saphenous vein were obtained from deceased donors (age: 45±1.7 years) according to a protocol that was approved by the ethical committee of the University Hospital Ghent, Belgium. […] Exclusion criteria were: presence of ulcers, calcific atheromas, rupture of intima or media, traction lesions due to prelevation in arteries; signs of phlebitis, atheromatosis, parietal abnormalities, or lesions of intima in veins. The vessels were placed in HBSS-HEPES and prior to cryopreservation, DMSO (15%) was added. […] Grafts were cryopreserved at 1° C./minute in a −80° C. freezer and, after two weeks, stored for at least another two weeks in a liquid nitrogen container (−196° C.).
(§2) For vessel analysis and cell death studies, tissues were thawed in a 37° C. water bath and kept on ice before the next steps. DMSO was then progressively washed out by a stepwise reduction of the DMSO concentration in the HBSS-HEPES solution. To that purpose, the blood vessels remained for 4 minutes in HBSS-HEPES solution with, respectively, 10%, 5%, 2.5% and 0% DMSO. In Gap27-treated vessels, the peptide (200 μM) was present during DMSO washout.
(§3) After DMSO washout, vessels were embedded in paraffin. To this purpose, blood vessels were transferred to a neutral buffered 4% formalin solution for fixation during 24 hours and were then embedded in paraffin. Paraffin-embedded vessel specimens were cut into […] serial sections along a transverse plane and were then stained with hematoxylin and eosin for general inspection, immunostained for connexins to establish the expression of various connexin types in the blood vessels or stained for cell death (apoptosis) making use of in situ terminal TdT-mediated dUTP nick end-labeling (TUNEL) with the In Situ Cell Death Detection Kit (Roche, Vilvoorde, Belgium). After any of these staining procedures, images were taken on a Nikon TE300 inverted microscope using a ×10 or ×20 objective and equipped with a Nikon DS-Ri1 cooled color CCD camera (Nikon Belux, Brussels, Belgium).
(§4) Embedded artery or vein sections were deparaffinized, rehydrated through graded alcohol, and permeabilized with 0.1% TRITON® X-100 at room temperature (8 minutes incubation). Slides were rinsed twice in a phosphate-buffered saline (PBS). Apoptosis was detected through in situ terminal deoxynucleotidyl transferase (TdT)-mediated deoxyuridine triphosphate (dUTP) nick end-labeling (TUNEL), using the In Situ Cell Death Detection Kit (Roche, Vilvoorde, Belgium). Slides were incubated with the TUNEL reaction mixture containing TdT and fluorescein-dUTP for 1 hour at 37° C.; thereafter, they were rinsed three times in PBS and mounted as described for immunostaining. […] TUNEL-stained blood vessel tissue sections were examined by epifluorescence microscopy as described for immunostaining. Four areas from each slide were examined and five slides per blood vessel were analyzed. The number of TUNEL-positive cells is given as a percentage of the total number of cells quantified from DAPI-positive counts.

[3] = system: ECs and SMCs of saphenous veins; assay: TUNEL apoptosis assay on cryopreserved/thawed human saphenous veins; conditions: for effect on number of TUNEL-positive cells (in words) / reduction of TUNEL-positive cell death counts (fraction): saphenous veins; for Protection relative to total number of cells (%) / Protection relative to total number of dead cells (%): Veins, Gap27 200 μM; for reduction of TUNEL-positive cell death counts (fraction): 200 μM during cryopreservation, thawing and DMSO washout
From the text: as §1, §2, §3, §4

[4] = system: cumulus cells of bovine COCs; assay: TUNEL cell death of COCs after simulated transportation
Description: COCs were fixed in neutral buffered 4% formalin solution after thawing. Fixed COCs were permeabilized with 0.1% TRITON® X-100 at room temperature (8-minute incubation). COCs were rinsed twice in a phosphate-buffered saline (PBS, see Pharmacological agents and solutions). Cell death was detected by in situ terminal deoxynucleotidyl transferase (TdT)-mediated deoxyuridine triphosphate (dUTP) nick end-labeling (TUNEL), using a commercial In Situ Cell Death Detection Kit (Roche, Vilvoorde, Belgium). COCs were incubated with the TUNEL reaction mixture containing TdT and fluorescein-dUTP for 1 hour at 37° C.; thereafter, they were rinsed three times in PBS and mounted with an antifade solution containing 4′,6-diamidino-2-phenylindole (DAPI) (Vectashield, Lab Consult) for nuclear staining. Slides were examined by epifluorescence microscopy using a Nikon TE300 inverted microscope with a ×10 objective and equipped with a Nikon DS-Ri1 cooled color CCD camera (Nikon Belux, Brussels, Belgium).
[…] This was performed with or without Gap27 peptide (200 μM) present in the transportation phase medium. Afterward, cell death was evaluated via TUNEL assays as described before.
Testing was performed as to whether Gap27 could improve COC viability upon inclusion in the media during a simulated transportation phase (5 hours total duration, see Materials and Methods) applied after the vitrification/thawing procedure. In these experiments, vitrification/thawing were done under control conditions and Gap27 was only present in the transportation medium.

[5] = system: ECs and SMCs of saphenous veins; assay: TUNEL apoptosis assay on cryopreserved/thawed human saphenous veins; conditions: saphenous vein; Gap27 during cryopreservation/thawing only
[6] = system: ECs and SMCs of femoral arteries; assay: TUNEL apoptosis assay on cryopreserved/thawed human femoral arteries; conditions: femoral artery; Gap27 during cryopreservation/thawing only
bovine oocytes [7] = assay: Fertilization rate of vitrified/thawed COCs; conditions: COCs vitrified/thawed in the presence of Gap27
Description: All procedures used were in accordance with the guidance principals for care and use of laboratory animals of the Laboratory Animal Ethical Commission of Ghent University. Bovine cumulus-oocyte complexes (COCs) were aspirated from ovaries collected at a local slaughterhouse. Immature COCs were recovered from the follicular fluid, washed two times in HEPES-TALP (see below under the heading “Pharmacological agents and solutions” of Materials and Methods), and matured for 22 hours in groups of 60 in […] of modified bicarbonate-buffered TCM199 (Gibco BRL, Life Technologies) supplemented with 20% heat-inactivated fetal calf serum (FCS; Sigma-Aldrich) at 38.5° C. in a humidified 5% CO2 incubator. Vitrification was performed in two steps: an equilibration (EQ) and a vitrification step (VS). Equilibration solution was composed of M199/Hanks/HEPES supplemented with 20% fetal calf serum (FCS)+7.5% ethylene glycol+7.5% DMSO. The vitrification solution contained: M199/Hanks/HEPES supplemented with 20% FCS+15% ethylene glycol, 15% DMSO and 0.5 M sucrose. The COCs were washed by transferring them sequentially in three drops of 100 μl EQ solution (3 minutes residence in the first two drops and 6 minutes in the last drop) and then placed stepwise in five 100 μl drops VS solution (5 seconds in each drop except for the fifth that lasted 10 seconds). […]

[8] = system: bovine cumulus-oocyte complexes (COCs); assay: TUNEL cell death assay on COCs after vitrification/thawing
Description: Bovine cumulus-oocyte complexes (COCs) were aspirated from ovaries collected at a local slaughterhouse. Immature COCs were recovered from the follicular fluid, washed two times in HEPES-TALP (see below under the heading “Pharmacological agents and solutions” of Materials and Methods), and matured for 22 hours in groups of 60 in 500 mL of modified bicarbonate-buffered TCM199 (Gibco BRL, Life Technologies) supplemented with 20% heat-inactivated fetal calf serum (FCS; Sigma-Aldrich) at 38.5° C. in a humidified 5% CO2 incubator. Vitrification was performed in two steps: an equilibration (EQ) and a vitrification step (VS). Equilibration solution was composed of M199/Hanks/HEPES supplemented with 20% fetal calf serum (FCS)+7.5% ethylene glycol+7.5% DMSO. The vitrification solution contained: M199/Hanks/HEPES supplemented with 20% FCS+15% ethylene glycol, 15% DMSO and 0.5 M sucrose. The COCs were washed by transferring them sequentially in three drops of 100 μl EQ solution (3 minutes residence in the first two drops and 6 minutes in the last drop) and then placed stepwise in five 100 μl drops VS solution (5 seconds in each drop except for the fifth that lasted 10 seconds). The connexin channel inhibitor Gap27 was added to the fifth drop of VS solution at a final concentration of 200 μM (the Gap27 sequence is given below under the heading “Pharmacological agents and solutions” of Materials and Methods). The control condition consisted of a drop solution without any added Gap27. COCs were placed in a manufactured cryotop and transferred immediately to liquid nitrogen (−196° C.).
After 24 hours' storage in liquid nitrogen, the COCs were thawed by transferring them to a warming solution at 37° C. composed of M199/Hanks/HEPES+20% FCS+1.25 M sucrose for 1 minute. This was followed by a three-step wash-out of the hyperosmolar sucrose (reduced from 1.25 M to 0.62, 0.31 and 0 M, respectively; duration of each wash was 3 minutes, 5 minutes and 5 minutes, respectively). In the Gap27 treatment condition, the peptide concentration was gradually diluted over these three washing steps, halving its concentration with each transfer step (reduced from 200 μM in cryopreservation solution to 100, 50 and 0 μM, respectively). In the text that follows, “thawing” denotes the combination of warming and wash out of the hyperosmolarity.
COCs were fixed in neutral buffered 4% formalin solution after thawing. Fixed COCs were permeabilized with 0.1% TRITON® X-100 at room temperature (8-minute incubation). […] Cell death was detected by in situ terminal deoxynucleotidyl transferase (TdT)-mediated deoxyuridine triphosphate (dUTP) nick end-labeling (TUNEL), using a commercial In Situ Cell Death Detection Kit (Roche, Vilvoorde, Belgium). […]

bovine oocytes [9] = assay: Cleavage rate of vitrified/thawed COCs; conditions: Gap27-treated vitrified/thawed COCs; after 48 hours in culture
Description: All procedures used were in accordance with the guidance principals for care and use of laboratory animals of the Laboratory Animal Ethical Commission of Ghent University. Bovine cumulus-oocyte complexes (COCs) were aspirated from ovaries collected at a local slaughterhouse. Immature COCs were recovered from the follicular fluid, washed two times in HEPES-TALP (see below under the heading “Pharmacological agents and solutions” of Materials and Methods), and matured for 22 hours in groups of 60 in […] of modified bicarbonate-buffered TCM199 (Gibco BRL, Life Technologies) supplemented with 20% heat-inactivated fetal calf serum (FCS; Sigma-Aldrich) at 38.5° C. in a humidified 5% CO2 incubator. Vitrification was performed in two steps: an equilibration (EQ) and a vitrification step (VS). Equilibration solution was composed of M199/Hanks/HEPES supplemented with 20% fetal calf serum (FCS)+7.5% ethylene glycol+7.5% DMSO. The vitrification solution contained: M199/Hanks/HEPES supplemented with 20% FCS+15% ethylene glycol, 15% DMSO and 0.5 M sucrose. […]
To determine the cleavage rate, zygotes were washed and placed in groups of 30 in […] droplets of synthetic oviduct fluid (composition see below under “Pharmacological agents and solutions”) supplemented with 5% FCS and cultured at 38.5° C. in 5% CO2, 5% O2, and 90% N2; cleavage rate was determined after 48 hours in culture.

[10] = simulated transportation at 0° C., intact COCs
[11] = simulated transportation at 37° C., cumulus reduced to 1-5 cell layers
[12] = simulated transportation at 37° C., intact cumulus cloud
[13] = cumulus cells, Gap27 during vitrification/thawing

## CN[C@@H]1C[C@H]2O[C@@](C)([C@@H]1OC)n1c3ccccc3c3c4c(c5c6ccccc6n2c5c31)C(=O)NC4 [staurosporine, Staurosporine]
[1]
  TUNEL positivity (in words): massive TUNEL positivity

## Gap27 with a scrambled peptide sequence: scrambled Gap27 control peptide TFEPIRISITK [reference compound]
[2]; ECs and SMCs
  effect on number of TUNEL-positive cells (in words): no significant effects
[3]; ECs and SMCs
  effect on number of TUNEL-positive cells (in words): no significant effects

## Gap27: connexin mimetic peptide, connexin channel inhibitor, SRPTEKTIFII (SEQ ID NO:2) (listed as Homo sapiens)
[2]; EC
  Protection relative to total number of cells (%): 11 ± 4 (n = 11) %
  Protection relative to total number of dead cells (%): 32 ± 8 (n = 11) %
[2]; SMC
  Protection relative to total number of cells (%): 6 ± 3 (n = 11) %
  Protection relative to total number of dead cells (%): 73 ± 7 (n = 11) %
[2]; ECs and SMCs
  effect on number of TUNEL-positive cells (in words): visibly reduced; also recorded: significantly reduced
[2]; intimal layer (ECs)
  reduction of TUNEL-positive cell death counts (fraction): more than ⅓
[2]; medial layer (SMCs)
  reduction of TUNEL-positive cell death counts (fraction): more than ⅔
[2]; femoral artery, ECs and SMCs, Gap27 during DMSO washout only
  effect on cell death (in words): slightly (but non-significantly) reduced
[4]; simulated transportation 5 hours at 37° C., intact cumulus cloud, Gap27 200 μM in transportation medium
  cell death of cumulus cells: 13.8%
[4]; [10]
  cell death of cumulus cells: 2.82%
  reduction of the dead cell mass: ~53%
  rescue effect of the total cell mass: ~3.1%
[4]; simulated transportation at 37° C., cumulus cell layer reduced to 1-5 cell layers
  cell death of cumulus cells: 7.54%
[4]; [11]
  reduction of the dead cell mass: ~54%
  rescue effect of the total cell mass: ~8.7%
[4]; [12]
  reduction of the mass of dead cells: ~32%
  rescue effect relative to the total mass of cells: ~6.5%
[3]; EC
  Protection relative to total number of cells (%): 12 ± 4 (n = 13) %
  Protection relative to total number of dead cells (%): 51 ± 8 (n = 13) %
[3]; SMC
  Protection relative to total number of cells (%): 6 ± 2 (n = 13) %
  Protection relative to total number of dead cells (%): 71 ± 6 (n = 13) %
[3]; saphenous vein, ECs and SMCs, Gap27 during DMSO washout only
  effect on cell death (in words): slightly (but non-significantly) reduced
[3]; ECs and SMCs
  effect on number of TUNEL-positive cells (in words): significantly reduced
[3]; ECs
  reduction of TUNEL-positive cell death counts (fraction): ½
[3]; SMCs
  reduction of TUNEL-positive cell death counts (fraction): more than ½
[5]
  effect on cell death (in words): larger and statistically significant protective effects
[6]
  effect on cell death (in words): larger and statistically significant protective effects
Bovine oocytes [7]
  fertilization rate: 41.2%
[8]; Gap27 200 μM during vitrification/thawing
  cell death (TUNEL assay) of cumulus cells: 1.68%
[8]; after vitrification/thawing, whatever the treatment
  cell death of the oocytes (in words): No cell death of the oocytes
[8]; [13]
  cell mass rescued (effect size relative to the total number of cells): ~2.4%
  reduction relative to the total number of dead cells in control: ~59%
Bovine oocytes [9]
  cleavage rate: 28%
